# Target: T1, Recombinant (1-346) HPK1 (h) (Homo sapiens, UniProt Q92918)
# T1 construct: Recombinant (1-346) HPK1 (h) is incubated with 8 mM MOPS pH 7.0
# T1 sequence (Q92918 1-346): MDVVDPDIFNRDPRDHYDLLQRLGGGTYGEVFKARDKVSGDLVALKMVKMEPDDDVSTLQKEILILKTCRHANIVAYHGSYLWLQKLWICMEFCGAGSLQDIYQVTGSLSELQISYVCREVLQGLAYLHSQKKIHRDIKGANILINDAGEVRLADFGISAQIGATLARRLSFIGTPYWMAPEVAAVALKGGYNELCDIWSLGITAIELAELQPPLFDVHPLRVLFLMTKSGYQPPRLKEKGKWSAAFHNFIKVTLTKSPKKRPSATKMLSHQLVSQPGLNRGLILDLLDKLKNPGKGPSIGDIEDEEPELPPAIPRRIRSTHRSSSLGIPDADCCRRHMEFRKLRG
# Assay: HPK1 human STE kinase enzymatic radiometric assay
# Format: biochemical
# Conditions: read-out: HPK1 IC50 nM Range
# Summary of the method: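 Compounds in 3-fold, 9-point serial dilution; kinase (residues 1-346) phosphorylates myelin basic protein (0.33 mg/mL) using [gamma-33P]-ATP at pH 7.0 (MOPS, EDTA, Mg acetate) for 40 min, room temperature. Acid-quenched mixture filtered onto P30 mats; incorporated radioactivity read by scintillation counting.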
row,Compound,IC50 [nM]
1,"Cc1cc2cc(-c3nc(-c4ccc(C5CCOCC5)c(CN(C)C)c4)c(F)nc3N)c(F)cc2c(=O)[nH]1 [Example I-184, 6-(3-amino-6-(3-((dimethylamino)methyl)-4-(tetrahydro-2H-pyran-4-yl)phenyl)-5-fluoropyrazin-2-yl)-7-fluoro-3-methylisoquinolin-1(2H)-one]",0.1 to 10
2,"Nc1nc(F)c(-c2ccc(N3CCOCC3)c(CN3CCCCC3)c2)nc1-c1ccc2c(c1)CCNC2=O [Example I-185, 6-(3-amino-5-fluoro-6-(4-morpholino-3-(piperidin-1-ylmethyl)phenyl)pyrazin-2-yl)-3,4-dihydroisoquinolin-1(2H)-one]",11 to 100
3,"Nc1nc(F)c(-c2ccc(N3CCOCC3)c(CN3CCCCC3)c2)nc1-c1cc2c(cc1F)C(=O)NCC2 [Example I-186, 6-(3-amino-5-fluoro-6-(4-morpholino-3-(piperidin-1-ylmethyl)phenyl)pyrazin-2-yl)-7-fluoro-3,4-dihydroisoquinolin-1(2H)-one]",11 to 100
4,"Nc1nc(F)c(-c2ccc(N3CCOCC3)c(CN3CCCCC3)c2)nc1-c1cc(F)c2c(c1)CCNC2=O [Example I-187, 6-(3-amino-5-fluoro-6-(4-morpholino-3-(piperidin-1-ylmethyl)phenyl)pyrazin-2-yl)-8-fluoro-3,4-dihydroisoquinolin-1(2H)-one]",11 to 100
5,"COC1CN(Cc2cc(-c3nc(-c4ccc5c(c4)CCNC5=O)c(N)nc3F)ccc2N2CCOCC2)C1 [Example I-188, 6-(3-amino-5-fluoro-6-(3-((3-methoxyazetidin-1-yl)methyl)-4-morpholinophenyl)pyrazin-2-yl)-3,4-dihydroisoquinolin-1(2H)-one]",0.1 to 10
6,"COC1CN(Cc2cc(-c3nc(-c4cc5c(cc4F)C(=O)NCC5)c(N)nc3F)ccc2N2CCOCC2)C1 [Example I-189, 6-(3-amino-5-fluoro-6-(3-((3-methoxyazetidin-1-yl)methyl)-4-morpholinophenyl)pyrazin-2-yl)-7-fluoro-3,4-dihydroisoquinolin-1(2H)-one]",0.1 to 10
7,"COC1CN(Cc2cc(-c3nc(-c4cc5c(cc4F)C(=O)NCC5)c(N)nc3F)ccc2C2CCOCC2)C1 [Example I-190, 6-(3-amino-5-fluoro-6-(3-((3-methoxyazetidin-1-yl)methyl)-4-(tetrahydro-2H-pyran-4-yl)phenyl)pyrazin-2-yl)-7-fluoro-3,4-dihydroisoquinolin-1(2H)-one]",0.1 to 10
8,"COC1CN(Cc2cc(-c3nc(-c4cc(F)c5c(c4)CCNC5=O)c(N)nc3F)ccc2C2CCOCC2)C1 [Example I-191, 6-(3-amino-5-fluoro-6-(3-((3-methoxyazetidin-1-yl)methyl)-4-(tetrahydro-2H-pyran-4-yl)phenyl)pyrazin-2-yl)-8-fluoro-3,4-dihydroisoquinolin-1(2H)-one]",0.1 to 10
9,"COC1CN(Cc2cc(-c3nc(-c4cc(F)c5c(c4)CCNC5=O)c(N)nc3F)ccc2N2CCOCC2)C1 [Example I-192, 6-(3-amino-5-fluoro-6-(3-((3-methoxyazetidin-1-yl)methyl)-4-morpholinophenyl)pyrazin-2-yl)-8-fluoro-3,4-dihydroisoquinolin-1(2H)-one]",0.1 to 10
10,"COC1CN(Cc2cc(-c3nc(-c4ccc5c(c4)CCNC5=O)c(N)nc3F)ccc2C2CCOCC2)C1 [Example I-193, 6-(3-amino-5-fluoro-6-(3-((3-methoxyazetidin-1-yl)methyl)-4-(tetrahydro-2H-pyran-4-yl)phenyl)pyrazin-2-yl)-3,4-dihydroisoquinolin-1(2H)-one]",0.1 to 10
11,"Cc1nc2cc(-c3nc(-c4ccc(N5C[C@@H](C)O[C@@H](C)C5)c(CN(C)C)c4)c(F)nc3N)ccc2c(=O)[nH]1 [Example I-194, 7-(3-amino-6-(3-((dimethylamino)methyl)-4-((2R,6S)-2,6-dimethylmorpholino)phenyl)-5-fluoropyrazin-2-yl)-2-methylquinazolin-4(3H)-one]",11 to 100
12,"CC1NC(=O)c2c(F)cc(-c3nc(-c4ccc([C@]56C[C@H]5CN(C5CCC5)C6)cc4)c(F)nc3N)cc2C1(F)F (stereo partly drawn) [Example I-195, 6-(3-amino-6-(4-((1S,5R)-3-cyclobutyl-3-azabicyclo[3.1.0]hexan-1-yl)phenyl)-5-fluoropyrazin-2-yl)-4,4,8-trifluoro-3-methyl-3,4-dihydroisoquinolin-1(2H)-one]",11 to 100
13,"Cc1nc2cc(-c3nc(-c4ccc(N5C[C@@H](C)O[C@@H](C)C5)c(CN(C)C)c4)c(F)nc3N)cc(F)c2c(=O)[nH]1 [Example I-196, 7-(3-amino-6-(3-((dimethylamino)methyl)-4-((2R,6S)-2,6-dimethylmorpholino)phenyl)-5-fluoropyrazin-2-yl)-5-fluoro-2-methylquinazolin-4(3H)-one]",11 to 100
14,"C[C@@H]1CN(c2ccc(-c3nc(-c4cc(F)c5c(c4)CCNC5=O)c(N)nc3F)cc2CN(C)C)C[C@H](C)O1 [Example I-197, 6-(3-amino-6-(3-((dimethylamino)methyl)-4-((2R,6S)-2,6-dimethylmorpholino)phenyl)-5-fluoropyrazin-2-yl)-8-fluoro-3,4-dihydroisoquinolin-1(2H)-one]",0.1 to 10
15,"C[C@@H]1CN(c2ccc(-c3nc(-c4ccc5c(c4)CCNC5=O)c(N)nc3F)cc2CN(C)C)C[C@H](C)O1 [Example I-198, 6-(3-amino-6-(3-((dimethylamino)methyl)-4-((2R,6S)-2,6-dimethylmorpholino)phenyl)-5-fluoropyrazin-2-yl)-3,4-dihydroisoquinolin-1(2H)-one]",0.1 to 10
16,"Nc1nc(F)c(-c2ccc(N3CCOCC3)c(CN3CCC3)c2)nc1-c1ccc2c(=O)[nH]cc(F)c2c1 [Example I-199, 6-(3-amino-6-(3-(azetidin-1-ylmethyl)-4-morpholinophenyl)-5-fluoropyrazin-2-yl)-4-fluoroisoquinolin-1(2H)-one]",0.1 to 10
17,"Nc1nc(F)c(-c2ccc(N3CCOCC3)c(CN3CCCC3)c2)nc1-c1ccc2c(=O)[nH]cc(F)c2c1 [Example I-200, 6-(3-amino-5-fluoro-6-(4-morpholino-3-(pyrrolidin-1-ylmethyl)phenyl)pyrazin-2-yl)-4-fluoroisoquinolin-1(2H)-one]",0.1 to 10
18,"Nc1nc(F)c(-c2ccc(N3CCOCC3)cn2)nc1-c1ccc2c(c1)CCNC2=O [Example I-201, 6-(3-amino-5-fluoro-6-(5-morpholinopyridin-2-yl)pyrazin-2-yl)-3,4-dihydroisoquinolin-1(2H)-one]",11 to 100

# Further lines, results first:
row,IC50 [nM],Compound
1,0.1 to 10,"Cc1c[nH]c(=O)c2ccc(-c3nc(-c4ccc(N5CCOCC5)c(CN5CCC5)c4)c(F)nc3N)cc12 [Example I-202, 6-(3-amino-6-(3-(azetidin-1-ylmethyl)-4-morpholinophenyl)-5-fluoropyrazin-2-yl)-4-methylisoquinolin-1(2H)-one]"
2,0.1 to 10,"Cc1c[nH]c(=O)c2ccc(-c3nc(-c4ccc(N5CCOCC5)c(CN5CCCC5)c4)c(F)nc3N)cc12 [Example I-203, 6-(3-amino-5-fluoro-6-(4-morpholino-3-(pyrrolidin-1-ylmethyl)phenyl)pyrazin-2-yl)-4-methylisoquinolin-1(2H)-one]"
3,0.1 to 10,"Nc1nc(F)c(-c2ccc(C3CCOCC3)c(CN3CCC3)c2)nc1-c1ccc2c(=O)[nH]cc(F)c2c1 [Example I-204, 6-(3-amino-6-(3-(azetidin-1-ylmethyl)-4-(tetrahydro-2H-pyran-4-yl)phenyl)-5-fluoropyrazin-2-yl)-4-fluoroisoquinolin-1(2H)-one]"
4,0.1 to 10,"Cc1c[nH]c(=O)c2ccc(-c3nc(-c4ccc(C5CCOCC5)c(CN5CCCC5)c4)c(F)nc3N)cc12 [Example I-205, 6-(3-amino-5-fluoro-6-(3-(pyrrolidin-1-ylmethyl)-4-(tetrahydro-2H-pyran-4-yl)phenyl)pyrazin-2-yl)-4-methylisoquinolin-1(2H)-one]"
5,0.1 to 10,"Cc1c[nH]c(=O)c2ccc(-c3nc(-c4ccc(C5CCOCC5)c(CN5CCC5)c4)c(F)nc3N)cc12 [Example I-206, 6-(3-amino-6-(3-(azetidin-1-ylmethyl)-4-(tetrahydro-2H-pyran-4-yl)phenyl)-5-fluoropyrazin-2-yl)-4-methylisoquinolin-1(2H)-one]"
6,0.1 to 10,"Nc1nc(F)c(-c2ccc(C3CCOCC3)c(CN3CCCC3)c2)nc1-c1ccc2c(=O)[nH]cc(F)c2c1 [Example I-207, 6-(3-amino-5-fluoro-6-(3-(pyrrolidin-1-ylmethyl)-4-(tetrahydro-2H-pyran-4-yl)phenyl)pyrazin-2-yl)-4-fluoroisoquinolin-1(2H)-one]"
7,11 to 100,"Nc1nc(F)c(-c2ccc(OC3CCOCC3)c(CN3CCC3)c2)nc1-c1ccc2c(c1)CCNC2=O [Example I-208, 6-(3-amino-6-(3-(azetidin-1-ylmethyl)-4-((tetrahydro-2H-pyran-4-yl)oxy)phenyl)-5-fluoropyrazin-2-yl)-3,4-dihydroisoquinolin-1(2H)-one]"
8,11 to 100,"Nc1nc(F)c(-c2ccc(OC3CCOCC3)c(CN3CCC3)c2)nc1-c1cc2c(cc1F)C(=O)NCC2 [Example I-209, 6-(3-amino-6-(3-(azetidin-1-ylmethyl)-4-((tetrahydro-2H-pyran-4-yl)oxy)phenyl)-5-fluoropyrazin-2-yl)-7-fluoro-3,4-dihydroisoquinolin-1(2H)-one]"
9,11 to 100,"Nc1nc(F)c(-c2ccc(OC3CCOCC3)c(CN3CCC3)c2)nc1-c1cc(F)c2c(c1)CCNC2=O [Example I-210, 6-(3-amino-6-(3-(azetidin-1-ylmethyl)-4-((tetrahydro-2H-pyran-4-yl)oxy)phenyl)-5-fluoropyrazin-2-yl)-8-fluoro-3,4-dihydroisoquinolin-1(2H)-one]"

# Source: patent US20240425479A1, “HALO-SUBSTITUTED AMINO AZA-HETEROARYL COMPOUNDS AS INHIBITORS OF THE HAEMATOPOIETIC PROGENITOR KINASE 1 (HPK1)” (priority 2021, published 2024)
